Values quoted from earlier work as cited in patent publication US20250025568A1, “COMBINATION OF ANTIBODY-DRUG CONJUGATE AND PARP1 SELECTIVE INHIBITOR” (AstraZeneca UK Limited, priority 2021, published 2025).
pIC50: −log10 of the molar value.

Key:
[1] = system: WT DLD-1; settings: 4 day compound dosing; read-out: WT DLD-1 prolif 4 d IC50; cited from earlier work
[2] = system: BRCA2 −/− DLD-1; settings: 4 day compound dosing; read-out: BRCA2 −/− DLD-1 prolif 4 d IC50; cited from earlier work

SMILES	pIC50 [1]	pIC50 [2]
CCc1nc2ccc(CN3CCN(c4ccc(C(=O)NC)nc4C)CC3)cc2[nH]c1=O [Example 13, 5-[4-[(2-ethyl-3-oxo-4H-quinoxalin-6-yl)methyl]piperazin-1-yl]-N, 6-dimethyl-pyridine-2-carboxamide]	< 4.59	8.30
CCc1nc2ccc(CN3CCN(c4ccc(C(=O)NC)nc4Cl)CC3)cc2[nH]c1=O [Example 14, 6-chloro-5-[4-[(2-ethyl-3-oxo-4H-quinoxalin-6-yl)methyl]piperazin-1-yl]-N-methyl-pyridine-2-carboxamide]	< 4.52	8.22
CNC(=O)c1ccc(N2CCN(Cc3ccc4nc(C(F)(F)F)c(=O)[nH]c4c3)CC2)cn1 [Example 15, N-methyl-5-[4-[[3-oxo-2-(trifluoromethyl)-4H-quinoxalin-6-yl]methyl]piperazin-1-yl]pyridine-2-carboxamide]	< 4.52	7.05
CNC(=O)c1ccc(N2CCN(Cc3ccc4nc(C(F)(F)F)c(=O)[nH]c4c3)CC2)c(Cl)n1 [Example 16, 6-chloro-N-methyl-5-[4-[[3-oxo-2-(trifluoromethyl)-4H-quinoxalin-6-yl]methyl]piperazin-1-yl]pyridine-2-carboxamide]	< 4.66	7.74
CNC(=O)c1ccc(N2CCN(Cc3ccc4nc(C(F)(F)F)c(=O)[nH]c4c3)CC2)c(F)n1 [Example 17, 6-fluoro-N-methyl-5-[4-[[3-oxo-2-(trifluoromethyl)-4H-quinoxalin-6-yl]methyl]piperazin-1-yl]pyridine-2-carboxamide]	< 4.52	7.70
CCCc1nc2ccc(CN3CCN(c4ccc(C(=O)NC)nc4)CC3)cc2[nH]c1=O [Example 18, N-methyl-5-[4-[(3-oxo-2-propyl-4H-quinoxalin-6-yl)methyl]piperazin-1-yl]pyridine-2-carboxamide]	< 4.52	5.31
CCCc1nc2ccc(CN3CCN(c4ccc(C(=O)NC)nc4F)CC3)cc2[nH]c1=O [Example 20, 6-fluoro-N-methyl-5-[4-[(3-oxo-2-propyl-4H-quinoxalin-6-yl)methyl]piperazin-1-yl]pyridine-2-carboxamide]	< 4.62	7.80
CCc1nc2cc(F)c(CN3CCN(c4ccc(C(=O)NC)nc4F)CC3)cc2[nH]c1=O [Example 21, 5-[4-[(2-ethyl-7-fluoro-3-oxo-4H-quinoxalin-6-yl)methyl]piperazin-1-yl]-6-fluoro-N-methyl-pyridine-2-carboxamide]	< 4.52	7.80
CNC(=O)c1ccc(N2CCN(Cc3ccc4nc(C(C)(F)F)c(=O)[nH]c4c3)CC2)cn1 [Example 22, 5-[4-[[2-(1,1-difluoroethyl)-3-oxo-4H-quinoxalin-6-yl]methyl]piperazin-1-yl]-N-methyl-pyridine-2-carboxamide]	< 4.52	7.92
CNC(=O)c1ccc(N2CCN(Cc3ccc4nc(CC(F)F)c(=O)[nH]c4c3)CC2)c(F)n1 [Example 24, 5-[4-[[2-(2,2-difluoroethyl)-3-oxo-4H-quinoxalin-6-yl]methyl]piperazin-1-yl]-6-fluoro-N-methyl-pyridine-2-carboxamide]	4.85	8.00
CNC(=O)c1ccc(N2CCN(Cc3ccc4nc(CCF)c(=O)[nH]c4c3)CC2)c(F)n1 [Example 26, 6-fluoro-5-[4-[[2-(2-fluoroethyl)-3-oxo-4H-quinoxalin-6-yl]methyl]piperazin-1-yl]-N-methyl-pyridine-2-carboxamide]	4.64	8.30
CNC(=O)c1ccc(N2CCN(Cc3ccc4nc(CC(F)(F)F)c(=O)[nH]c4c3)CC2)cn1 [Example 27, N-methyl-5-[4-[[3-oxo-2-(2,2,2-trifluoroethyl)-4H-quinoxalin-6-yl]methyl]piperazin-1-yl]pyridine-2-carboxamide]	< 5.00	4.99
CNC(=O)c1ccc(N2CCN(Cc3ccc4nc(CC(F)(F)F)c(=O)[nH]c4c3)CC2)c(F)n1 [Example 28, 6-fluoro-N-methyl-5-(4-((3-oxo-2-(2,2,2-trifluoroethyl)-3,4-dihydroquinoxalin-6-yl)methyl)piperazin-1-yl) picolinamide]	< 4.52	7.57
CCc1cc2ncc(CN3CCN(c4ccc(C(=O)NC)nc4C(F)F)CC3)cc2[nH]c1=O [Example 29, 6-(difluoromethyl)-5-[4-[(7-ethyl-6-oxo-5H-1,5-naphthyridin-3-yl)methyl]piperazin-1-yl]-N-methyl-pyridine-2-carboxamide]	< 4.52	8.15
